# Where a name gives a salt, the structure may show the parent alone.
# Tested on: IL-23p19
# Experiment: LPS induced IL23p19 in THP-1 cells (with IFNγ primed) assay
# Format: cell-based, Human
# Settings: Homo sapiens, THP-1, 18 h, THP-1 cells, IFNγ primed, LPS 1 ug/mL, 18 hours, 10 pt; read-out: IL23-p19 ELISA, THP1-IFNy, LPS, 10 pt EC50
# From the text: LPS Induced IL23p19 in THP-1 Cells (with IFNγ Primed) Assay
# THP-1 Cells (ATCC, Cat#TIB-202), Dimethyl Sulfoxide (DMSO) (Sigma-Aldrich, Cat#D2650), RPMI 1640 (Cellgro, Cat#10-040-CM), Fetal Bovine Serum (Sigma, Cat#F4135), Albumin From Bovine Serum (BSA) (Sigma-Aldrich, Cat#A7906), LPS (Serotype K-235, Sigma, Product Number L 2143), IFNγ (Peprotech, Cat#300-02) Capture antibody: Human IL-23p19 ELISA (e-Bioscience, Cat. #14-7238-85), Detection antibody: Primary Mouse Biotinylated anti-human IL-12(p40/p70) (e-Bioscience, Cat. #13-7129-85), Secondary HRP-conjugated Streptavidin (R&D Systems, Cat#DY998), 1×PBST Washing Buffer (PBS-Tween tablet) (VWR International, Cat#80058-558), ELISA Blocking Buffer (PBS with 1% BSA), ELISA Dilution Buffer (PBS with 1% BSA), 384 Well Flat-Bottom, MaxiSorp Black Immuno Plates (Thermo Scientific, Cat#12-565-346), 384 Well Flat-Bottom, White Tissue Culture Plates (Thermo Scientific, Cat#12-565-343), Super Signal ELISA Pico Chemiluminescent Substrate (Thermo Scientific, Cat#37070), Cell Titer Glo reagent (Promega, Cat#G7573), Positive control, IKK2VI inhibitor (Calbiochem, Cat#401483), AquaMax 4000 plate washer (Molecular Devices), Luminometer, Wallac Victor2 1420 Multilabel Counter.
# On day 1, 50K/well THP-1 cells were seeded and primed with IFNγ (50 ng/mL) in 384-well plates for about 18 hours in RPMI media with 10% FBS. On day 2, the compound was serially diluted in DMSO from 5 mM in 3-fold dilutions, and then diluted 1:125 in RPMI media with 10% FBS. 50 μL/well 2× compound was added to 50 μL/well THP-1 cells (with IFNγ primed) in duplicate in 384 well tissue culture plates. The cells were pre-incubated with compound for 1 hour at 37° C., 5% CO2 before addition of 10 μL/well 11×LPS to give a final concentration of 1 ug/mL LPS. Day 3, after stimulation for 18 hours at 37° C., 5% CO2, the assay plate was centrifuged and 70 μL/well supernatant was harvested. IL-23p19 protein in 70 μL/well of supernatant was measured by sandwich ELISA, and 25 μl/well Cell Titer Glo reagent was added to the remaining cells to measure compound toxicity.
# Maxisorp immuno ELISA plates were pre-coated with 25 μL/well of anti-IL-23p19 capture antibody (2.5 ug/mL) in PBS overnight at room temperature. After washing with 1× PBST, the plates were blocked using 100 μL/well of 1% BSA in PBS for 2 hours at room temperature. The plates were washed three times with 1×PBST and 70 μL/well supernatant were added. The plates were incubated at room temperature for 2 hours with shaking and washed three times with 1×PBST. 25 μL/well of biotin labeled anti-IL-12(p40/p70) detection antibody (100 ng/mL) in PBS with 1% BSA was added and the plates were incubated at room temperature for 2 hours with shaking. After washing three times with 1×PBST, 25 μL/well of streptavidin-HRP (1:200) in PBS with 1% BSA was added and the plates were incubated at room temperature for 20 minutes with shaking. The plates were washed three times with 1× PBST and 25 μL/well of Super Signal ELISA Pico Chemiluminescent Substrate were added. The plates were read with a luminometer, and the chemiluminescence values were entered into Athena (Rigel) for curve fitting, EC50 calculation, and database storage.
row,SMILES,EC50 [µM]
1,"O=C(Nc1cn(C2CCC2)nc1-c1ccccn1)c1ccc(-c2cnn(C3CCC3)c2)o1 [Compound I-122, 5-(1-cyclobutyl-1H-pyrazol-4-yl)-N-(1-cyclobutyl-3-(pyridin-2-yl)-1H-pyrazol-4-yl)furan-2-carboxamide 2,2,2-trifluoroacetate]",3.76
2,"Cn1cc(NC(=O)c2csc(-c3cn[nH]c3)n2)c(C#N)n1 [II-137, N-(3-cyano-1-methyl-1H-pyrazol-4-yl)-2-(1H-pyrazol-4-yl)thiazole-4-carboxamide]",0.206
3,"CCO[C@H]1C[C@@H](n2cc3c(n2)CCCN3C(=O)c2csc(-c3cn[nH]c3)n2)C1 [II-67, (2-(1H-pyrazol-4-yl)thiazol-4-yl)(2-((1s,3s)-3-ethoxycyclobutyl)-2,5,6,7-tetrahydro-4H-pyrazolo[4,3-b]pyridin-4-yl)methanone]",26.2
4,"COCCOCCn1cc(-c2ccc(C(=O)Nc3cn(CCOCCOC)nc3-c3ccccn3)o2)cn1 [Compound I-52, 5-(1-(2-(2-methoxyethoxy)ethyl)-1H-pyrazol-4-yl)-N-(1-(2-(2-methoxyethoxy)ethyl)-3-(pyridin-2-yl)-1H-pyrazol-4-yl)furan-2-carboxamide formate]",1.38
5,"COc1ccc(Cn2cc(-c3nc(C(=O)Nc4cn(CC(O)C(F)(F)F)nc4-c4ccccn4)cs3)cn2)cc1 (stereo not shown) [II-103, 2-(1-(4-methoxybenzyl)-1H-pyrazol-4-yl)-N-(3-(pyridin-2-yl)-1-(3,3,3-trifluoro-2-hydroxypropyl)-1H-pyrazol-4-yl)thiazole-4-carboxamide]",8.08
6,"CCO[C@H]1C[C@@H](n2cc(NC(=O)c3csc(-c4cn[nH]c4)n3)c(C(F)(F)F)n2)C1 [II-62, N-(1-((1s,3s)-3-ethoxycyclobutyl)-3-(trifluoromethyl)-1H-pyrazol-4-yl)-2-(1H-pyrazol-4-yl)thiazole-4-carboxamide]",6.48
7,"CCCOCn1cc(NC(=O)c2ccc(-c3c[nH]c([N+](=O)[O-])c3)o2)c(-c2ccccn2)n1 [Compound I-24, 5-(5-nitro-1H-pyrrol-3-yl)-N-(1-(propoxymethyl)-3-(pyridin-2-yl)-1H-pyrazol-4-yl)furan-2-carboxamide]",4.22
8,"Cn1cc(NC(=O)c2coc(-c3cnn(CC4CC4)c3)n2)c(-c2ccccn2)n1 [III-1, 2-(1-(cyclopropylmethyl)-1H-pyrazol-4-yl)-N-(1-methyl-3-(pyridin-2-yl)-1H-pyrazol-4-yl)oxazole-4-carboxamide]",20.3

# Now from value to compound:
row,EC50 [µM],SMILES
1,0.377,"O=C(Nc1cn(C(=O)N2CCOCC2)nc1-c1ccccn1)c1csc(-c2cn[nH]c2)n1 [II-129, N-(1-(morpholine-4-carbonyl)-3-(pyridin-2-yl)-1H-pyrazol-4-yl)-2-(1H-pyrazol-4-yl)thiazole-4-carboxamide]"
2,24.6,"O=C(Nc1cn(C(F)F)nc1-c1ccccn1)c1csc(-c2cnn(C(F)F)c2)n1 [II-98, 2-(1-(difluoromethyl)-1H-pyrazol-4-yl)-N-(1-(difluoromethyl)-3-(pyridin-2-yl)-1H-pyrazol-4-yl)thiazole-4-carboxamide]"
3,24.1,"COc1ccc(Cn2cc(-c3nc(C(=O)Nc4c[nH]nc4-c4ccccn4)cs3)cn2)cc1 [II-53, 2-(1-(4-methoxybenzyl)-1H-pyrazol-4-yl)-N-(3-(pyridin-2-yl)-1H-pyrazol-4-yl)thiazole-4-carboxamide]"
4,6.16,"COc1ccc(Cn2cc(-c3nc(C(=O)Nc4cn(CCF)nc4-c4ccccn4)cs3)cn2)cc1 [II-52, N-(1-(2-fluoroethyl)-3-(pyridin-2-yl)-1H-pyrazol-4-yl)-2-(1-(4-methoxybenzyl)-1H-pyrazol-4-yl)thiazole-4-carboxamide]"
5,5.55,"COc1ccc(Cn2cc(-c3nc(C(=O)Nc4cn(C(=O)N(C)C)nc4-c4ccccn4)cs3)cn2)cc1 [II-105, N-(1-(dimethylcarbamoyl)-3-(pyridin-2-yl)-1H-pyrazol-4-yl)-2-(1-(4-methoxybenzyl)-1H-pyrazol-4-yl)thiazole-4-carboxamide]"
6,0.615,"CC1(O)CC(n2cc(NC(=O)c3csc(-c4cn[nH]c4)n3)c(-c3ccccn3)n2)C1 (stereo not shown) [II-87, N-(1-(3-hydroxy-3-methylcyclobutyl)-3-(pyridin-2-yl)-1H-pyrazol-4-yl)-2-(1H-pyrazol-4-yl)thiazole-4-carboxamide]"
7,0.109,"CCO[C@H]1C[C@@H](n2cc(NC(=O)c3csc(-c4c(C)n[nH]c4C)n3)c(-c3ccccn3)n2)C1 [II-93, 2-(3,5-dimethyl-1H-pyrazol-4-yl)-N-(1-((1,3-cis)-3-ethoxycyclobutyl)-3-(pyridin-2-yl)-1H-pyrazol-4-yl)thiazole-4-carboxamide]"

# Same assay, conditions: Homo sapiens, THP-1, 18 h, read-out: IL23-p19 ELISA, THP1-IFNy, LPS, 10 pt EC50 (μM)
row,SMILES,EC50 [µM]
1,"CCOP(=O)(Cn1cc(-c2nc(C(=O)Nc3cn(C)nc3-c3ccccn3)cs2)cn1)OCC [II-7, diethyl ((4-(4-((1-methyl-3-(pyridin-2-yl)-1H-pyrazol-4-yl)carbamoyl)thiazol-2-yl)-1H-pyrazol-1-yl)methyl)phosphonate]",6.09

# Reference: patent US10208074B2, “Pyrazole compounds and method for making and using the compounds” (Rigel Pharmaceuticals, Inc., priority 2015, dated 2019)
